Reference: PubChem BioAssay (NCI)
Where “and” joins values, the source holds several entries; their conditions need not be identical. Equal values may be shown once.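 Grown in 96-well plates, cells were treated for 48 hours with each compound at five concentrations. Insufficient inhibition: endpoint recorded as highest concentration tested. GI50 is the concentration that inhibits growth by half. TGI marks complete inhibition of growth.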

What was measured:
Experiment in all cases: NCI tumour cell line growth inhibition, 48 h
[1] = tested on: SNB-19 CNS
[2] = tested on: NCI-H23 lung
[3] = tested on: COLO 205 colon
[4] = tested on: MOLT-4 leukemia
[5] = tested on: TK-10 renal
[6] = tested on: SF-268 CNS
[7] = tested on: HOP-18 NSCLC
[8] = tested on: SR leukemia
[9] = tested on: A498 renal
[10] = tested on: RXF 393 renal
[11] = tested on: RXF-631 renal
[12] = tested on: SK-MEL-28 melanoma
[13] = tested on: UO-31 renal
[14] = tested on: OVCAR-8 ovarian
[15] = tested on: HT29 colon
[16] = tested on: XF 498 CNS
[17] = tested on: OVCAR-3 ovarian
[18] = tested on: SNB-75 CNS
[19] = tested on: SW-620 colon
[20] = tested on: NCI-H460 lung
[21] = tested on: 786-0 renal
[22] = tested on: LXFL 529 NSCLC
[23] = tested on: NCI-H226 lung
[24] = tested on: RPMI-8226 leukemia
[25] = tested on: HL-60(TB) leukemia
[26] = tested on: SF-539 CNS
[27] = tested on: HOP-62 NSCLC
[28] = tested on: A549 NSCLC
[29] = tested on: SNB-78 CNS
[30] = tested on: IGROV1 ovarian
[31] = tested on: ACHN renal
[32] = tested on: DLD-1 colon
[33] = tested on: EKVX NSCLC
[34] = tested on: K-562 leukemia
[35] = tested on: UACC-257 melanoma
[36] = tested on: SN12C renal
[37] = tested on: M19-MEL melanoma
[38] = tested on: SF-295 CNS
[39] = tested on: U251 CNS
[40] = tested on: KM12 colon
[41] = tested on: HOP-92 NSCLC
[42] = tested on: KM20L2 colon
[43] = tested on: OVCAR-4 ovarian
[44] = tested on: HCT-116 colon
[45] = tested on: DMS 114 small cell lung
[46] = tested on: HCT-15 colon
[47] = tested on: NCI-H522 lung
[48] = tested on: HCC-2998 colon
[49] = tested on: MALME-3M melanoma
[50] = tested on: SK-MEL-2 melanoma
[51] = tested on: DU-145 prostate
[52] = tested on: LOX IMVI melanoma
[53] = tested on: UACC-62 melanoma
[54] = tested on: OVCAR-5 ovarian
[55] = tested on: M14 melanoma
[56] = tested on: MDA-MB-435
[57] = tested on: T-47D breast
[58] = tested on: MDA-MB-231 breast
[59] = tested on: SN12K1 renal
[60] = tested on: PC-3 prostate
[61] = tested on: P388 leukemia
[62] = tested on: BT-549 breast
[63] = tested on: MCF7 breast
[64] = tested on: MDA-N
[65] = tested on: NCI/ADR-RES ovarian
[66] = tested on: HS 578T breast
[67] = tested on: P388/ADR leukemia

Work on `CCOC(=O)Cc1csc(Nc2ccc(OCC)cc2)n1` yielded a TGI [1] greater than 100 µM, a TGI [2] greater than 100 µM and a TGI [3] greater than 100 µM. The TGI [4] was greater than 100 µM, the TGI [5] was greater than 100 µM and the TGI [6] was greater than 100 µM. For the same compound, the TGI [7] was greater than 100 µM, the TGI [8] was greater than 100 µM and the TGI [9] was greater than 100 µM. The TGI [10] was greater than 100 µM, the TGI [11] was greater than 100 µM and the TGI [12] was greater than 100 µM. For the same compound, the TGI [13] was greater than 100 µM, the TGI [14] was greater than 100 µM and the TGI [15] was greater than 100 µM. The TGI [16] was greater than 100 µM, the TGI [17] was greater than 100 µM and the TGI [18] was greater than 100 µM. It also gave a TGI [19] greater than 100 µM, a TGI [20] greater than 100 µM and a TGI [21] greater than 100 µM. For the same compound, the TGI [22] was greater than 100 µM, the TGI [23] was greater than 100 µM and the TGI [24] was greater than 100 µM. It also gave a TGI [25] greater than 100 µM, a TGI [26] greater than 100 µM and a TGI [27] greater than 100 µM. The TGI [28] was greater than 100 µM, the TGI [29] was greater than 100 µM and the TGI [30] was greater than 100 µM. It also gave a TGI [31] greater than 100 µM, a TGI [32] greater than 100 µM and a TGI [33] greater than 100 µM. For the same compound, the TGI [34] was greater than 100 µM, the TGI [35] was greater than 100 µM and the TGI [36] was greater than 100 µM. The TGI [37] was greater than 100 µM, the TGI [38] was greater than 100 µM and the TGI [39] was greater than 100 µM. It also gave a TGI [40] greater than 100 µM, a TGI [41] greater than 100 µM and a TGI [42] greater than 100 µM. It also gave a TGI [43] greater than 100 µM, a TGI [44] greater than 100 µM and a TGI [45] greater than 100 µM. It also gave a TGI [46] greater than 100 µM, a TGI [47] greater than 100 µM and a TGI [48] greater than 100 µM. The TGI [49] was greater than 100 µM and the TGI [50] was greater than 100 µM.
`COc1cc2c(c(OC)c1OC)-c1ccc(OC)c(=O)cc1[C@@H](NC(C)=O)CC2` was tested, and the TGI [51] was 0.0538 µM, the TGI [52] was greater than 100 µM and the GI50 [4] was < 0.01 µM and 0.0352 µM and 0.0625 µM. For the same compound, the GI50 [5] was greater than 100 µM, the TGI [5] was greater than 100 µM and the TGI [53] was > 100 µM and > 77.4 µM and 91.7 µM. It also gave a GI50 [8] of less than 0.01 µM, a TGI [8] greater than 100 µM and a GI50 [54] greater than 578 µM. The TGI [54] was greater than 625 µM, the TGI [11] was greater than 91.2 µM and the TGI [12] was greater than 625 µM. For the same compound, the GI50 [13] was 4.74 µM and 1.09 µM and 1.33 µM, the TGI [13] was greater than 625 µM and the GI50 [14] was 1.35 µM. For the same compound, the TGI [14] was greater than 100 µM, the TGI [55] was > 100 µM and 32 µM and the TGI [56] was less than 0.01 µM. The TGI [19] was greater than 394 µM, the GI50 [57] was greater than 100 µM and the TGI [57] was greater than 100 µM. For the same compound, the GI50 [20] was 0.625 µM, the TGI [21] was greater than 100 µM and the GI50 [58] was 7.13 µM. The TGI [58] was greater than 100 µM, the GI50 [59] was 0.00298 µM and the TGI [59] was 0.00625 µM and < 0.0625 µM. The TGI [24] was > 100 µM and 217 µM, the GI50 [27] was 0.866 µM and the TGI [27] was greater than 625 µM. The TGI [28] was greater than 100 µM, the TGI [30] was greater than 100 µM and the TGI [31] was greater than 100 µM. The TGI [60] was greater than 100 µM, the GI50 [32] was 0.0176 µM and the TGI [32] was greater than 625 µM. The GI50 [33] was 16.7 µM, the TGI [33] was greater than 625 µM and the TGI [36] was > 100 µM and > 93.4 µM and 131 µM. It also gave a TGI [37] greater than 522 µM, a TGI [61] of 2.7 µM and a TGI [62] greater than 70.9 µM. The GI50 [42] was 0.00285 µM and 0.018 µM, the TGI [42] was 0.00625 µM and 0.036 µM and < 0.0625 µM and the TGI [43] was greater than 100 µM. For the same compound, the GI50 [44] was < 0.01 µM and 0.0625 µM, the TGI [45] was 0.0724 µM and the GI50 [63] was < 0.01 µM and 0.00342 µM and < 0.0114 µM. For the same compound, the TGI [46] was > 100 µM and 25.8 µM and 50.4 µM, the TGI [64] was 0.833 µM and the GI50 [65] was 0.488 µM. For the same compound, the TGI [48] was 1.01 µM and 7.43 µM, the GI50 [49] was 4.33 µM and 1.35 µM and the TGI [66] was greater than 100 µM. The GI50 [50] was 0.48 µM and the TGI [67] was 55.9 µM.
